In patent US5691148A, “Petroleum immunoassay method, its components and a kit for use in performing the same” (ENSYS, Inc., priority 1994, dated 1997):
Read-outs that look alike come from different tables or passages of the source.

Experiments:
[1] = tested on: monoclonal F12-3C8 antibody (anti-petroleum); test: Cross-reactivity of immunoassay relative to m-xylene; type: binding, mouse (Balb/c); details: for ED50: calculated from a dose response curve
Procedure: (§1) Female Balb/c mice received a primary subcutaneous immunization with 50 ug of xylene derivatized to bovine serum albumin in adjuvant (MPL+TDM Emulsion, RIBI Immunochem Research, Inc., Hamilton, Mont.). Subcutaneous secondary injections (25 ug) were given at day 21, 35, and then monthly. The production of monoclonal antibodies was performed according to conventional procedures (see Milstein, Cancer, 49:1953-1957 (1982)). Hybridoma cultures producing monoclonal antibodies recognizing free hapten by EIA were cloned by limiting dilution.
(§2) Antibody coated tubes were prepared by passively coating polystyrene (12×75 mm, NUNC) tubes with the monoclonal F12-3C8 antibody diluted in PBS and incubating overnight.
(§3) 10 g of a soil sample were placed in an extraction vial containing 20 mL of methanol and 5 steel pellets (6 mm) and the vial and its contents shaken for 1 minute to disperse the soil particles and extract the petroleum hydrocarbons. The sample was then filtered to clarify the sample using a filter of glass fiber and 0.45μTeflon. 45 uL of the clarified filtrate sample was mixed with 955 μl of 10 mM PBS (pH=7.4) and the resulting mixture added to lyophilized enzyme conjugate reagent (0.3 μg) and mixed. At the same time, 2×45 uL of the xylene standard are similarly treated. The sample and the two standards were then poured into three identical antibody coated tubes, respectively, and the resulting solution mixed. The resulting solution was incubated for 10 minutes at ambient temperature and then washed 4× with a wash buffer (detergent-saline solution). 250 uL of tetramethylbenzidene solution (KP Laboratories, Cat. No. 50-76-02) was added along with 250 uL of hydrogen peroxide solution (KPL, Cat. No. 50-65-02) and the resultant solution mixed. After incubating for 2.5 minutes the color development reaction was stopped with 250 uL of stop solution (1M sulfuric acid).
The ED50 value was calculated from a dose response curve.
Percent CrossReactivity = ((mXylene ED50 /Compound ED50) .times

[2] = tested on: monoclonal F12-3C8 antibody (anti-petroleum); test: Cross-reactivity of immunoassay: concentration needed to provide a positive result; type: binding, mouse (Balb/c); details: test compounds dissolved in methanol
Procedure: as §1, with “dilution. Clone F12-3C8 was selected based upon specificity, and interference criteria.” for “dilution.”
as §2, §3
Cross-reactivity of the immunoassay of the present
invention. The test compounds were dissolved in
methanol and assayed. The values listed are the
concentration of compound needed to provide a […]

[3] = (m-Xylene ED50 / Compound ED50) x 100, m-xylene = 100%

Compound	% Cross-Reactivity [1, 3]	ED50 [1]	ED50 ([1]; 10 min)	% Cross-Reactivity [1] [%]	Conc. where positive [2]
CCCCCCCCCCCCCC [n-Tetradecane]	< 1%	Negative			
CCCC(C)C [2-Methylpentane]	57%		851 ppb		
C1CCCCC1 [Cyclohexane]	7%		6,636 ppb		
c1ccccc1 [Benzene]				< 1	> 10,000 ppm
CCCCCCCCCCC [n-Undecane]	< 1%	Negative			
CCCCCCCCCCCCC [n-Tridecane]	< 1%	Negative			
CCCCCCC [Heptane]					300 ppm
CCCCCCCCC [n-Nonane]	< 1%	Negative			
CCCCCC [Hexane]					300 ppm
CCCCCCCCCCC [Undecane]					> 10,000 ppm
Cc1ccccc1 [Toluene]	22%		2,210 ppb		300 ppm
Cc1ccc(C)cc1 [p-Xylene]	38%		1,255 ppb		
Cc1cccc(C)c1 [m-Xylene, reference compound]	100%		483 ppb		
CCCCCCCC [n-Octane]	11%		4,589 ppb		
CC(C)CC(C)(C)C [2,2,4-Trimethylpentane]	< 1%	Negative			
c1ccc2c(c1)ccc1ccccc12 [Phenanthrene]	848%		57 ppb		10 ppm
CCCCC(C)C [2-Methylhexane]	43%		1,113 ppb		
c1ccc2ccccc2c1 [Naphthalene]	4,390%		11 ppb		2.5 ppm
c1cc2c3c(cccc3c1)CC2 [Acenaphthene]	5,378%		9 ppb		2.5 ppm
Cc1ccccc1C [o-Xylene]	271%		178 ppb		
CC(C)CC(C)(C)C [Isooctane]					100 ppm
Xylene					100 ppm
CCCCCCC [n-Heptane]	30%		1,669 ppb		
CCc1ccccc1 [Ethylbenzene]			176 ppb	275	
Methylnaphthalene	780%		62 ppb		10 ppm
